Source: the CheMixHub viscosity set
± gives the uncertainty stated by the source.

Assay: xn = mol fraction of the nth substance listed

CCCCCCCCCCCC + c1ccccc1
Conditions	viscosity [mPa·s]
295.15 K, 100 kPa, x2 = 0.3903	1.047 ± 0.21
298 K, 101 kPa, x2 = 0.5	0.9053 ± 0.024
298.15 K, 101.33 kPa, x1 = 0.04733	0.6259 ± 0.0056
298.15 K, 101.33 kPa, x1 = 0.1084	0.6476 ± 0.0057
298.15 K, 101.33 kPa, x1 = 0.2036	0.6913 ± 0.0061
298.15 K, 101.33 kPa, x1 = 0.2978	0.7491 ± 0.0065
298.15 K, 101.33 kPa, x1 = 0.4139	0.8308 ± 0.0071
298.15 K, 101.33 kPa, x1 = 0.5192	0.9153 ± 0.0077
298.15 K, 101.33 kPa, x1 = 0.6155	0.9976 ± 0.0083
298.15 K, 101.33 kPa, x1 = 0.7291	1.102 ± 0.0091
298.15 K, 101.33 kPa, x1 = 0.8011	1.168 ± 0.0096
298.15 K, 101.33 kPa, x1 = 0.9231	1.291 ± 0.01
298.38 K, 101.3 kPa, x1 = 0.5002	0.8885 ± 0.011
298.52 K, 101.3 kPa, x1 = 0.2502	0.7103 ± 0.0087
298.76 K, 101.3 kPa, x1 = 0.7496	1.097 ± 0.013
298.77 K, 101.3 kPa, x1 = 0.7496	1.096 ± 0.013
298.79 K, 101.3 kPa, x1 = 0.7496	1.095 ± 0.013
299.49 K, 101.3 kPa, x1 = 0.5002	0.8746 ± 0.011
308.08 K, 101.3 kPa, x1 = 0.5002	0.775 ± 0.0094
308.51 K, 101.3 kPa, x1 = 0.2502	0.6242 ± 0.0076
308.9 K, 101.3 kPa, x1 = 0.7496	0.9482 ± 0.011
318 K, 101 kPa, x2 = 0.5	0.6904 ± 0.018
322.92 K, 101.3 kPa, x1 = 0.5002	0.6451 ± 0.0078
322.94 K, 101.3 kPa, x1 = 0.2502	0.5262 ± 0.0064

CCCCCCCCCCO + c1ccccc1
viscosity [mPa·s], 100 kPa
Conditions	x2 = 0.0822	x2 = 0.1563	x2 = 0.2472	x2 = 0.3611	x2 = 0.4531	x2 = 0.5602	x2 = 0.6533	x2 = 0.7528	x2 = 0.8574	x2 = 0.9496
293.15 K	12.2 ± 0.61	10.48 ± 0.53	8.738 ± 0.44	6.833 ± 0.34	5.51 ± 0.28	4.154 ± 0.21	3.087 ± 0.16	2.082 ± 0.11	1.318 ± 0.068	0.839 ± 0.044
303.15 K	8.134 ± 0.41	6.872 ± 0.35	5.555 ± 0.28	4.197 ± 0.21	3.332 ± 0.17	2.5 ± 0.1	1.888 ± 0.096	1.361 ± 0.069	0.925 ± 0.047	0.656 ± 0.034
313.15 K	5.704 ± 0.29	4.746 ± 0.24	3.723 ± 0.19	2.709 ± 0.14	2.089 ± 0.11	1.514 ± 0.077	1.132 ± 0.058	0.877 ± 0.045	0.673 ± 0.034	0.546 ± 0.028
323.15 K	4.088 ± 0.21	3.345 ± 0.17	2.548 ± 0.13	1.757 ± 0.089	1.34 ± 0.07	1.012 ± 0.051	0.796 ± 0.041	0.644 ± 0.033	0.536 ± 0.027	0.461 ± 0.024

Cc1ccccc1C + c1ccccc1
viscosity [mPa·s]
Conditions	293.15 K	303.15 K	308.15 K	313.15 K	318.15 K	323.15 K
101 kPa, x2 = 0.1	–	0.657 ± 0.004	0.622 ± 0.004	0.594 ± 0.004	0.572 ± 0.004	–
101 kPa, x2 = 0.2	–	0.665 ± 0.004	0.631 ± 0.004	0.597 ± 0.004	0.573 ± 0.004	–
101 kPa, x2 = 0.4	–	0.69 ± 0.005	0.668 ± 0.005	0.599 ± 0.004	0.574 ± 0.004	–
101 kPa, x2 = 0.6	–	0.652 ± 0.004	0.623 ± 0.004	0.592 ± 0.004	0.55 ± 0.004	–
101 kPa, x2 = 0.802	–	0.645 ± 0.004	0.61 ± 0.004	0.577 ± 0.004	0.552 ± 0.004	–
101 kPa, x2 = 0.902	–	0.67 ± 0.004	0.641 ± 0.004	0.623 ± 0.004	0.587 ± 0.004	–
101.33 kPa, x2 = 0.1	–	0.657 ± 0.07	0.622 ± 0.066	0.594 ± 0.064	0.572 ± 0.062	–
101.33 kPa, x2 = 0.2	–	0.665 ± 0.07	0.631 ± 0.067	0.597 ± 0.064	0.573 ± 0.062	–
101.33 kPa, x2 = 0.2114	0.749 ± 0.0065	0.657 ± 0.0058	–	0.583 ± 0.0053	–	0.519 ± 0.0048
101.33 kPa, x2 = 0.4	–	0.69 ± 0.072	0.668 ± 0.07	0.599 ± 0.064	0.574 ± 0.062	–
101.33 kPa, x2 = 0.4129	0.71 ± 0.0062	0.625 ± 0.0056	–	0.554 ± 0.005	–	0.493 ± 0.0046
101.33 kPa, x2 = 0.5938	0.685 ± 0.0061	0.601 ± 0.0054	–	0.531 ± 0.0049	–	0.474 ± 0.0044
101.33 kPa, x2 = 0.6	–	0.652 ± 0.069	0.623 ± 0.067	0.592 ± 0.064	0.55 ± 0.06	–
101.33 kPa, x2 = 0.7195	0.669 ± 0.0059	0.585 ± 0.0053	–	0.517 ± 0.0048	–	0.461 ± 0.0043
101.33 kPa, x2 = 0.802	–	0.645 ± 0.068	0.61 ± 0.065	0.577 ± 0.063	0.552 ± 0.06	–
101.33 kPa, x2 = 0.8514	0.658 ± 0.0059	0.575 ± 0.0052	–	0.506 ± 0.0047	–	0.45 ± 0.0043
101.33 kPa, x2 = 0.902	–	0.67 ± 0.071	0.641 ± 0.068	0.623 ± 0.067	0.587 ± 0.063	–

c1cc[nH]c1 + c1ccccc1
viscosity [mPa·s], 101 kPa
Conditions	x1 = 0.05439	x1 = 0.06772	x1 = 0.1099
303.15 K	0.576 ± 0.018	0.579 ± 0.018	0.59 ± 0.018
323.15 K	0.445 ± 0.016	0.452 ± 0.016	0.459 ± 0.016

NC(N)=O + c1ccncc1
Conditions	viscosity [mPa·s]
298.15 K, 101 kPa, x1 = 0.012	0.939 ± 0.19
